Data: US20240417428A1, “POLYPEPTIDE FOR INHIBITING TRPM8 AND USE THEREOF” (ZHEJIANG UNIVERSITY, priority 2021, published 2024)
Where a SMILES comes first, the peptide text is derived from it.

Tests used:
TRPV1 = molecular target: T1, TRPV1 (Homo sapiens, UniProt Q8NER1); assay: Electrophysiological recording, ligand activation of TRPV1; type: cell-based
T1 construct: expressed in transfected cells; host or cells: HEK293T
Description: (§1) HEK293T cells were cultured in Dulbecco's modified Eagle culture medium under a 37° C., 5% CO2 environment, 10% fetal bovine serum, penicillin (100 U/mL), and streptomycin ([…]) was needed to add into the culture medium. Transient transfection was conducted by using Lipo 2000 (Invitrogen) transfection kit and following the instruction manual.
(§2) Electrophysiological experiment recordings were performed on the cells within 24˜48 h of transient transfections. Specifically, single channel electrophysiological recordings were performed within 8 h after transfection.
(§3) Measurement of the cell currents was respectively performed in the whole-cell recording mode, inside-out recording mode or outside-out recording mode with a HEKA EPC10 amplifier. In the whole cell electrophysiological recordings, glass microelectrodes made of borosilicate material were fire-polished to a original electrode resistance of about 3-6 MΩ. Serial resistance was compensated by 60%. The whole cell electrophysiological recordings were performed at ±80 mV. For single channel electrophysiological recordings, glass microelectrodes were fire-polished to a higher resistance of 6-8 MΩ2. Current signal was sampled at 10 kHz and filtered at 2.9 kHz. Membrane potential of the cell membrane would be clamped at +80 mV. All electrophysiological recordings were performed at room temperature (22° C.) (the maximum variation is 1° C.). […]

TRPA1 = molecular target: T2, TRPA1 (Homo sapiens, UniProt O75762); assay: Electrophysiological recording of TRPA1; type: cell-based
T2 construct: expressed in transfected cells; host or cells: HEK293T
Description: as §1, §2, §3

T2 sequence (O75762 whole entry, species assumed): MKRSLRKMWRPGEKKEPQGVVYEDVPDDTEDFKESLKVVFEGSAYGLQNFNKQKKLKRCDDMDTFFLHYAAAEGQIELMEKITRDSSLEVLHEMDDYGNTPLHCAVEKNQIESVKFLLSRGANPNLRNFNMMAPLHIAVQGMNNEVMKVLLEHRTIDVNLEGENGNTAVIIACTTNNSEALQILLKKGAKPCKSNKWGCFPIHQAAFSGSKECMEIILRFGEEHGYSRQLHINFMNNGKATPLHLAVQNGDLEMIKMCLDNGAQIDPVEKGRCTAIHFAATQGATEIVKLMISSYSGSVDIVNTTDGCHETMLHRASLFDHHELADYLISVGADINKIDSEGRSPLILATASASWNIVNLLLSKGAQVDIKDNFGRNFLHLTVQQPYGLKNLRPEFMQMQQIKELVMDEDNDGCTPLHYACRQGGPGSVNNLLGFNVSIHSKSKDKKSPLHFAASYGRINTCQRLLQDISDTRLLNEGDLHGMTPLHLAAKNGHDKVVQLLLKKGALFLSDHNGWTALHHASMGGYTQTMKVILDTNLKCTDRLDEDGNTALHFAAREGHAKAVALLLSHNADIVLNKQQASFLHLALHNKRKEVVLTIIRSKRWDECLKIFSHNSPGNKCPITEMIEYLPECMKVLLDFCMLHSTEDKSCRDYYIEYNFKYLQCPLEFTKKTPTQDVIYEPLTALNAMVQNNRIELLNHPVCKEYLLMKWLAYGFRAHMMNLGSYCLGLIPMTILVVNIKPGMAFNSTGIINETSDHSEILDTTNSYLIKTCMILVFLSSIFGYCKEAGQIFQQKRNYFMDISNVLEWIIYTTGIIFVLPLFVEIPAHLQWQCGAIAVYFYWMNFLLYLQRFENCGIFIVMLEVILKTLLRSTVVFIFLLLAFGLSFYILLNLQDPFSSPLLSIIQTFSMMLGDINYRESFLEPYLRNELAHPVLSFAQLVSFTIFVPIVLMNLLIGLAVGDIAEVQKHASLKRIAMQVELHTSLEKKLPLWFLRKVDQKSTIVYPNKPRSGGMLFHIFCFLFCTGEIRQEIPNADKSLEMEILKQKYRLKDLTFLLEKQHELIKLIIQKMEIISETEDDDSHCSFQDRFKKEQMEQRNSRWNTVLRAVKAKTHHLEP
T1 sequence (Q8NER1 whole entry, species assumed): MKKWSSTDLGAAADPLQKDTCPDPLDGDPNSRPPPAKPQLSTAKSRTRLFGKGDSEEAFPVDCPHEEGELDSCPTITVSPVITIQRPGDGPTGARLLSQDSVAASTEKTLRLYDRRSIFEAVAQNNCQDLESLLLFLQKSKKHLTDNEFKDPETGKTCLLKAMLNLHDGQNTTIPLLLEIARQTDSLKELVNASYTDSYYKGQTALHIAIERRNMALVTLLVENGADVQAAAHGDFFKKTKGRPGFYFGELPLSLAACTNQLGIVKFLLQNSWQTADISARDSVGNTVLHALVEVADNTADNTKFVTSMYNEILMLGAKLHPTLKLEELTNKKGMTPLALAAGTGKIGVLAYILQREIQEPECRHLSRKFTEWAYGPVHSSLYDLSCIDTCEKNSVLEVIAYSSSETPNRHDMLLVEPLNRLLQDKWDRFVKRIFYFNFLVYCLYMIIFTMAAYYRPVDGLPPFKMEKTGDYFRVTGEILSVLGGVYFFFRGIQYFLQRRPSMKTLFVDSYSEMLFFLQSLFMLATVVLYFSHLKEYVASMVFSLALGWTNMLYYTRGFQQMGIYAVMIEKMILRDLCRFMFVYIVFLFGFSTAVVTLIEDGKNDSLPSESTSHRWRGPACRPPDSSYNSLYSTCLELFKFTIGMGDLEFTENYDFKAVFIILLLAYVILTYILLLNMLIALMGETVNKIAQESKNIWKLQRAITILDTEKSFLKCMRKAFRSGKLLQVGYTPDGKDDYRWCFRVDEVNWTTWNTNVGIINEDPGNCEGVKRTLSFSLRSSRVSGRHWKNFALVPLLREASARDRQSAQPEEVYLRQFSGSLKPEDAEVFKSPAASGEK

Structure (SMILES): C[C@@H]1NC(=O)[C@H](CCCNC(=N)N)NC(=O)[C@H](CC(=O)O)NC(=O)[C@H](CCCNC(=N)N)NC(=O)[C@H](CCCNC(=N)N)NC(=O)[C@@H](N)CSSC[C@@H](C(=O)O)NC(=O)[C@H](CCCNC(=N)N)NC(=O)[C@H](CCC(N)=O)NC(=O)[C@H](CCCNC(=N)N)NC(=O)[C@H](Cc2ccc(O)cc2)NC(=O)[C@H](Cc2c[nH]cn2)NC(=O)[C@H](CCCNC(=N)N)NC1=O [DeC-1.2, CRRDRARHYRQRC] (HELM PEPTIDE1{C.R.R.D.R.A.R.H.Y.R.Q.R.C}$PEPTIDE1,PEPTIDE1,1:R3-13:R3$$$V2.0; N-terminus and C-terminus assumed)
- IC50 (TRPV1): > 100 µM
- inhibition of ligand activation of TRPV1 (TRPV1; DeC-1.2 5 μM): failed to inhibit
- IC50 (TRPA1): > 100 µM
- inhibition of TRPA1 (TRPA1): none of the TRP channels and Nav channels were inhibited
